# What was measured:
# [1] = tested on: COR-L311 (Small Cell Lung Carcinoma); assay: Bliss excess, mean over the matrix (fraction); higher = more synergy
# Method in brief: (§1)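 Cell lines in DMEM/F12 or RPMI with 10% FBS were plated in 1536-well plates, held 24 hours at 37°C, 5% CO2, then given two-drug dose matrices for 72 hours (DMSO typically 0.2%). Viability was read by CellTiter-Glo 2.0 luminescence and scaled as inhibition from 0 (vehicle wells) to 1 (blank wells). Combination Emax is the second-highest inhibition in the matrix; Bliss excess is observed combination effect minus expected EA + EB − EA·EB, EA and EB being single-agent effects.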
# [2] = tested on: NCI-H1666 (Lung Adenocarcinoma); assay: as above
# Method in brief: as §1
# [3] = tested on: NCI-H1693 (Lung Adenocarcinoma); assay: as above
# Method in brief: as §1
# 8-MG-BA (Glioblastoma) = assay: combination Emax (second highest fraction inhibited in the dose matrix, 72 h); higher = more inhibition; extreme values may be limits of the assay
# Method in brief: as §1
# A498 (Kidney Carcinoma) = assay: as above
# Method in brief: as §1
# [4] = tested on: A549 (Lung Adenocarcinoma); assay: as above
# Method in brief: as §1
# ARH-77 (Non-Cancerous) = assay: as above
# Method in brief: as §1
# [5] = tested on: CAL-29 (Bladder Carcinoma); assay: as above
# Method in brief: as §1
# [6] = tested on: CCK-81 (Colorectal Carcinoma); assay: as above
# Method in brief: as §1
# [7] = tested on: COLO-824 (Breast Carcinoma); assay: as above
# Method in brief: as §1
# [8] = tested on: COR-L311 (Small Cell Lung Carcinoma); assay: as above
# Method in brief: as §1
# [9] = tested on: ECC10 (Gastric Carcinoma); assay: as above
# Method in brief: as §1
# [10] = tested on: HCC1954 (Breast Carcinoma); assay: as above
# Method in brief: as §1
# Hs-445 (Non-Cancerous) = assay: as above
# Method in brief: as §1
# IGR-37 (Melanoma) = assay: as above
# Method in brief: as §1
# [11] = tested on: JSC-1 (B-Cell Non-Hodgkin's Lymphoma); assay: as above
# Method in brief: as §1
# [12] = tested on: NCI-H1581 (Non-Small Cell Lung Carcinoma); assay: as above
# Method in brief: as §1
# [13] = tested on: NCI-H64 (Small Cell Lung Carcinoma); assay: as above
# Method in brief: as §1
# NY (Osteosarcoma) = assay: as above
# Method in brief: as §1
# [14] = tested on: SK-MES-1 (Squamous Cell Lung Carcinoma); assay: as above
# Method in brief: as §1
# 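Wherever Bliss excess, mean over the matrix is given: after 72 h of two-drug dosing.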
SMILES,Bliss excess [1],Bliss excess [2],Bliss excess [3],combination Emax (8-MG-BA (Glioblastoma)),combination Emax (A498 (Kidney Carcinoma)),combination Emax [4],combination Emax (ARH-77 (Non-Cancerous)),combination Emax [5],combination Emax [6],combination Emax [7],combination Emax [8],combination Emax [9],combination Emax [10],combination Emax (Hs-445 (Non-Cancerous)),combination Emax (IGR-37 (Melanoma)),combination Emax [11],combination Emax [12],combination Emax [13],combination Emax (NY (Osteosarcoma)),combination Emax [14]
"COc1nnc2ccc(N3CCC(c4ccc(OCCN5CCN(C)C(=O)[C@H]5C)cc4)CC3)nn12 [AZD5153] + CC1(C)CCC(CN2CCN(c3ccc(C(=O)NS(=O)(=O)c4ccc(NCC5CCOCC5)c([N+](=O)[O-])c4)c(Oc4cnc5[nH]ccc5c4)c3)CC2)=C(c2ccc(Cl)cc2)C1 [Venetoclax] (first compound max 1 µM, 7x7, partner max 1 µM)",0.0389,-0.0603,-0.0464,0.707,0.439,0.707,0.861,0.327,0.848,0.881,0.934,0.985,0.152,0.724,0.65,0.769,0.469,0.226,0.542,0.472
"COc1nnc2ccc(N3CCC(c4ccc(OCCN5CCN(C)C(=O)[C@H]5C)cc4)CC3)nn12 [AZD5153] + CCN(CCO)CCCOc1ccc2c(Nc3cc(CC(=O)Nc4cccc(F)c4)[nH]n3)ncnc2c1 [AZD2811] (first compound max 1 µM, 7x7, partner max 1 µM)",-0.0357,-0.0376,-0.098,0.74,0.459,0.834,0.82,0.372,0.858,0.845,0.936,0.884,0.263,0.509,0.597,0.775,0.437,0.609,0.517,0.507
"COc1nnc2ccc(N3CCC(c4ccc(OCCN5CCN(C)C(=O)[C@H]5C)cc4)CC3)nn12 [AZD5153] + C[C@@H]1COCCN1C2=NC(=NC(=C2)C3(CC3)[S@](=N)(=O)C)C4=C5C=CNC5=NC=C4 [AZD6738] (first compound max 1 µM, 7x7, partner max 10 µM)",-0.0501,-0.0271,-0.0383,0.837,0.65,0.912,0.991,0.7,0.95,0.869,0.95,0.916,0.657,0.727,0.757,0.901,0.714,0.927,0.627,0.769
"COc1nnc2ccc(N3CCC(c4ccc(OCCN5CCN(C)C(=O)[C@H]5C)cc4)CC3)nn12 [AZD5153] + Cc1c2c(nn1C)CSCc1cc(n(C)n1)CSc1cc(c3ccccc3c1)OCCCc1c(C(=O)O)n(C)c3c-2c(Cl)ccc13 [AZD5991] (first compound max 1 µM, 7x7, partner max 1 µM)",-0.0225,-0.0538,-0.0418,0.94,0.529,0.821,0.831,0.355,0.916,0.724,0.971,1,0.956,0.618,0.949,1,0.983,0.399,0.688,0.558
"COc1nnc2ccc(N3CCC(c4ccc(OCCN5CCN(C)C(=O)[C@H]5C)cc4)CC3)nn12 [AZD5153] + Cn1cnc2c(F)c(Nc3ccc(Br)cc3Cl)c(C(=O)NOCCO)cc21 [Selumetinib] (first compound max 1 µM, 7x7, partner max 10 µM)",-0.0334,-0.0631,0.0093,0.796,0.867,0.917,0.839,0.595,1,0.694,0.847,0.955,0.263,0.555,1,0.805,0.599,0.237,0.52,0.717
"Cc1c2c(nn1C)CSCc1cc(n(C)n1)CSc1cc(c3ccccc3c1)OCCCc1c(C(=O)O)n(C)c3c-2c(Cl)ccc13 [AZD5991] + C1CN(CCC1(C(=O)N[C@@H](CCO)C2=CC=C(C=C2)Cl)N)C3=NC=NC4=C3C=CN4 [Capivasertib] (first compound max 1 µM, 7x7, partner max 3 µM)",0.0059,0.0151,-0.0294,0.85,0.561,0.379,0.915,0.342,0.918,0.601,0.718,0.721,0.996,0.988,0.207,1,1,0.378,0.492,0.262
"Cc1c2c(nn1C)CSCc1cc(n(C)n1)CSc1cc(c3ccccc3c1)OCCCc1c(C(=O)O)n(C)c3c-2c(Cl)ccc13 [AZD5991] + C=CCn1c(=O)c2cnc(Nc3ccc(N4CCN(C)CC4)cc3)nc2n1-c1cccc(C(C)(C)O)n1 [AZD1775] (first compound max 1 µM, partner max 1 µM)",-0.0655,0.0037,0.0581,0.906,0.602,0.425,0.995,0.919,0.928,0.667,0.812,0.858,0.978,1,0.768,1,1,0.933,0.747,0.593
"Cc1c2c(nn1C)CSCc1cc(n(C)n1)CSc1cc(c3ccccc3c1)OCCCc1c(C(=O)O)n(C)c3c-2c(Cl)ccc13 [AZD5991] + CC1(C)CCC(CN2CCN(c3ccc(C(=O)NS(=O)(=O)c4ccc(NCC5CCOCC5)c([N+](=O)[O-])c4)c(Oc4cnc5[nH]ccc5c4)c3)CC2)=C(c2ccc(Cl)cc2)C1 [Venetoclax] (first compound max 1 µM, 7x7, partner max 1 µM)",0.157,-0.0478,-0.025,0.855,0.361,0.216,0.859,0.391,0.871,0.997,0.938,1,0.967,0.962,0.282,1,0.968,0.359,0.729,0.146
"Cc1c2c(nn1C)CSCc1cc(n(C)n1)CSc1cc(c3ccccc3c1)OCCCc1c(C(=O)O)n(C)c3c-2c(Cl)ccc13 [AZD5991] + CCN(CCO)CCCOc1ccc2c(Nc3cc(CC(=O)Nc4cccc(F)c4)[nH]n3)ncnc2c1 [AZD2811] (first compound max 1 µM, 7x7, partner max 1 µM)",-0.0057,-0.0133,0.0102,0.836,0.352,0.41,0.904,0.739,0.875,0.815,0.906,0.957,0.98,0.968,0.24,1,1,0.788,0.48,0.408
"Cc1c2c(nn1C)CSCc1cc(n(C)n1)CSc1cc(c3ccccc3c1)OCCCc1c(C(=O)O)n(C)c3c-2c(Cl)ccc13 [AZD5991] + CN(C)CCCOc1ccc(-c2ccc3ncc4c(c3c2)n(C2CCOCC2)c(=O)n4C)cn1 [AZD0156] (first compound max 1 µM, 7x7, partner max 1 µM)",-0.0088,0.0068,-0.0254,0.586,0.392,0.323,0.867,0.545,0.88,0.411,0.433,0.66,0.978,0.949,0.282,1,0.976,0.346,0.399,0.196
"Cc1c2c(nn1C)CSCc1cc(n(C)n1)CSc1cc(c3ccccc3c1)OCCCc1c(C(=O)O)n(C)c3c-2c(Cl)ccc13 [AZD5991] + C[C@@H]1COCCN1C2=NC(=NC(=C2)C3(CC3)[S@](=N)(=O)C)C4=C5C=CNC5=NC=C4 [AZD6738] (first compound max 1 µM, 7x7, partner max 10 µM)",0.0018,0.0156,0.0316,0.961,0.621,0.726,0.976,0.897,0.979,0.868,0.752,0.766,0.991,1,0.848,1,1,0.905,0.805,0.785
"Cc1c2c(nn1C)CSCc1cc(n(C)n1)CSc1cc(c3ccccc3c1)OCCCc1c(C(=O)O)n(C)c3c-2c(Cl)ccc13 [AZD5991] + C[C@@H](Nc1cc(F)cc(F)c1)c1cc(C(=O)N(C)C)cc2c(=O)cc(N3CCOCC3)oc12 [AZD8186] (first compound max 1 µM, 7x7, partner max 3 µM)",-0.0098,-0.0359,-0.0461,0.734,0.742,0.476,0.928,0.421,0.899,0.441,0.508,0.721,0.974,0.929,0.325,1,0.991,0.406,0.631,0.381
"Cc1c2c(nn1C)CSCc1cc(n(C)n1)CSc1cc(c3ccccc3c1)OCCCc1c(C(=O)O)n(C)c3c-2c(Cl)ccc13 [AZD5991] + Cc1cc2ncnn2cc1Nc1ncc2c(n1)n(C1CCOCC1)c(=O)n2C [AZD7648] (first compound max 1 µM, 7x7, partner max 10 µM)",0.0101,-0.0666,-0.026,0.646,0.423,0.461,0.835,0.43,0.933,0.364,0.343,0.669,0.992,0.942,0.25,1,1,0.341,0.579,0.223
